PMC4715021, “^177Lu-labelled macrocyclic bisphosphonates for targeting bone metastasis in cancer treatment” (EJNMMI Research, 2016)
Values joined by “and” are separate entries in the source; they are usually repeats but may differ in a detail not shown here. Identical values can stand only once.

Experiments:
[1] = Ex vivo biodistribution of 177Lu-complexes in Wistar rats; conditions: for Biodistribution of radioactivity, Adipose tissue / Biodistribution of radioactivity, Adrenal gland / Biodistribution of radioactivity, Blood / Biodistribution of radioactivity, Brain / Biodistribution of radioactivity, Femur / Biodistribution of radioactivity, Harderian gland / Biodistribution of radioactivity, Heart / Biodistribution of radioactivity, Kidneys / Biodistribution of radioactivity, Liver / Biodistribution of radioactivity, Lung / Biodistribution of radioactivity, Muscle / Biodistribution of radioactivity, Pancreas / Biodistribution of radioactivity, Spleen / Biodistribution of radioactivity, Testes / Biodistribution of radioactivity, Thymus: i.v.
From the text: (§1) The experiments were realized corresponding to the German animal welfare regulations and institutional guidelines and with the permission of the local animal research committee at the Landesdirektion, Dresden. All experimental procedures are following the guidelines of the European Convention for the Protection of Vertebrate Animals used for Experimental and other Scientific Purposes (ETS No. 123). Male Wistar rats weighing 157.69 ± 17.10 g (mean ± SD, N = 35) were purchased from Unilever (HsdCpb:WU, Harlan Winkelmann, Borchen, Germany). Anesthetization was initiated and maintained by desflurane, and animals were put in the supine position and placed on a heating pad to maintain body temperature. A needle catheter was used for administration of the tracers in the tail vein. A second catheter was introduced into the right femoral artery for the extraction of blood samples for metabolite analysis, which was routinely done during SPECT/CT measurements.
The male Wistar rats received a short-term anesthetization by desflurane inhalation. Mean activities of 2.36 ± 0.27 MBq/kg of the ^177Lu-labelled tracers in isotonic saline were injected in a volume of 0.5 mL in the tail vein, with the following specific details: [^177Lu]citrate: 2.56 ± 0.07 MBq/kg, 128.58 body weight (BW, g), n = 4 (g); [^177Lu]BPAMD: 2.33 ± 0.11 MBq/kg, 159.41 BW (g), n = 4 (g); [^177Lu]BPAPD: 2.58 ± 0.24 MBq/kg, 156.38 BW (g), n = 4 (g); [^177Lu]BPPED: 2.27 ± 0.25 MBq/kg, 153.43 BW (g), n = 4 (g); [^177Lu]NO2AP^BP: 2.52 ± 0.25 MBq/kg, 173.82 BW (g), n = 4 (g); [^177Lu]DOTA(M^BP)2: 1.80 ± 0.10 MBq/kg, 181.64 BW (g), n = 4 (g); [^177Lu]DO2A(P^BP)2: 2.46 ± 0.15 MBq/kg, 150.60 BW (g), n = 4 (g). The compounds [^177Lu]DOTA(M^BP)2, [^177Lu]BPPED, and [^177Lu]BPAMD were further chosen for a biodistribution study after 8 days p.i. A mean activity of 19.0 ± 2.5 MBq/kg was injected. Animals were sacrificed after 5 min, 60 min, and 8 days p.i. Organs of interest were excised rapidly and weighed, and the ^177Lu activity was determined with a Wallac WIZARD automatic gamma counter (PerkinElmer, Germany) and decay corrected. The distribution data are expressed in %ID or are normalized to the BW as standard uptake value (SUV), which was calculated with the formula: SUV = (activity per g tissue)/(injected activity) × BW. The skeleton weight was calculated using the following: skeleton weight = 9.66 + 0.0355 × BW, and the total activities associated with the skeleton were calculated by using the activity concentration in the femur and the total skeleton weight.

[2] = Metabolite analysis and in vivo stability, arterial blood and urine samples; parameters: species or system Wistar rats
From the text: as §1
Arterial blood plasma samples were taken during SPECT/CT examinations after 1, 3, 5, 10, 20, 30, 60, and 120 min. p.i., and the in vivo metabolism of [^177Lu]BPAMD, [^177Lu]BPAPD, [^177Lu]BPPED, [^177Lu]NO2AP^BP, [^177Lu]DOTA(M^BP)2, and [^177Lu]DO2A(P^BP)2 was analyzed. Plasma was separated by centrifugation (3 min, 11,000×g) followed by precipitation of the plasma proteins with ice-cold methanol (1.5 parts per 1 part plasma) and centrifugation (3 min, 11,000×g). The supernatants were analyzed by radio-TLC and HPLC using the abovementioned methods for quality control. Additionally, urine samples were treated in the same way prior radio-TLC and radio-HPLC analysis.

[3] = 5 min p.i., mean of four animals
[4] = 60 min p.i., mean of four animals
[5] = 8 days p.i., mean for five animals

## O=C(O)CN1CCN(CC(=O)O)CCN(CC(=O)NC(P(=O)(O)O)P(=O)(O)O)CCN(CC(=O)O)CC1 [[^177Lu]BPAMD, metal not drawn]
[1]; 5 min p.i.
  Ratio Bone/Adipose tissue: 8.0
  Ratio Bone/Adrenal gland: 8.4
  Ratio Bone/Blood: 3.7
  Ratio Bone/Brain: 83.9
  Ratio Bone/Harderian gland: 9.3
  Ratio Bone/Heart: 9.3
  Ratio Bone/Kidneys: 0.7
  Ratio Bone/Liver: 12.9
  Ratio Bone/Lung: 5.5
  Ratio Bone/Muscle: 17.7
  Ratio Bone/Pancreas: 10.8
  Ratio Bone/Spleen: 9.1
  Ratio Bone/Testes: 13.4
  Ratio Bone/Thymus: 11.6
[1]; [3]
  Biodistribution of radioactivity, Adipose tissue: 0.42 SUV
  Biodistribution of radioactivity, Adrenal gland: 0.40 SUV
  Biodistribution of radioactivity, Blood: 0.90 SUV
  Biodistribution of radioactivity, Brain: 0.04 SUV
  Biodistribution of radioactivity, Femur: 3.36 SUV
  Biodistribution of radioactivity, Harderian gland: 0.36 SUV
  Biodistribution of radioactivity, Heart: 0.36 SUV
  Biodistribution of radioactivity, Kidneys: 4.53 SUV
  Biodistribution of radioactivity, Liver: 0.26 SUV
  Biodistribution of radioactivity, Lung: 0.61 SUV
  Biodistribution of radioactivity, Muscle: 0.19 SUV
  Biodistribution of radioactivity, Pancreas: 0.31 SUV
  Biodistribution of radioactivity, Spleen: 0.37 SUV
  Biodistribution of radioactivity, Testes: 0.25 SUV
  Biodistribution of radioactivity, Thymus: 0.29 SUV
[1]; 60 min p.i.
  Ratio Bone/Adipose tissue: 134.5
  Ratio Bone/Adrenal gland: 109.6
  Ratio Bone/Blood: 135.6
  Ratio Bone/Brain: 613.4
  Ratio Bone/Harderian gland: 118.8
  Ratio Bone/Heart: 210.1
  Ratio Bone/Kidneys: 14.0
  Ratio Bone/Liver: 127.5
  Ratio Bone/Lung: 69.1
  Ratio Bone/Muscle: 251.7
  Ratio Bone/Pancreas: 136.4
  Ratio Bone/Spleen: 68.2
  Ratio Bone/Testes: 179.1
  Ratio Bone/Thymus: 58.6
[1]; [4]
  Biodistribution of radioactivity, Adipose tissue: 0.04 SUV
  Biodistribution of radioactivity, Adrenal gland: 0.04 SUV
  Biodistribution of radioactivity, Blood: 0.04 ± 0.01 SUV and 0.04 SUV
  Biodistribution of radioactivity, Brain: 0.01 SUV
  Biodistribution of radioactivity, Femur: 4.84 ± 0.44 SUV and 4.84 SUV
  Biodistribution of radioactivity, Harderian gland: 0.04 SUV
  Biodistribution of radioactivity, Heart: 0.02 SUV
  Biodistribution of radioactivity, Kidneys: 0.35 SUV
  Biodistribution of radioactivity, Liver: 0.04 SUV
  Biodistribution of radioactivity, Lung: 0.07 SUV
  Biodistribution of radioactivity, Muscle: 0.02 SUV
  Biodistribution of radioactivity, Pancreas: 0.04 SUV
  Biodistribution of radioactivity, Spleen: 0.07 SUV
  Biodistribution of radioactivity, Testes: 0.03 SUV
  Biodistribution of radioactivity, Thymus: 0.08 SUV
[1]; 8 days p.i.
  Ratio Bone/Adipose tissue: 1158
  Ratio Bone/Adrenal gland: 547
  Ratio Bone/Blood: 6703
  Ratio Bone/Brain: 1405
  Ratio Bone/Harderian gland: 48
  Ratio Bone/Heart: 885
  Ratio Bone/Kidneys: 66
  Ratio Bone/Liver: 203
  Ratio Bone/Lung: 634
  Ratio Bone/Muscle: 37
  Ratio Bone/Pancreas: 851
  Ratio Bone/Spleen: 257
  Ratio Bone/Testes: 1136
  Ratio Bone/Thymus: 787
[1]; [5]
  Biodistribution of radioactivity, Adipose tissue: 0.004 SUV
  Biodistribution of radioactivity, Adrenal gland: 0.009 SUV
  Biodistribution of radioactivity, Blood: 0.001 SUV
  Biodistribution of radioactivity, Brain: 0.004 SUV
  Biodistribution of radioactivity, Femur: 5.039 SUV
  Biodistribution of radioactivity, Harderian gland: 0.105 SUV
  Biodistribution of radioactivity, Heart: 0.006 SUV
  Biodistribution of radioactivity, Kidneys: 0.076 SUV
  Biodistribution of radioactivity, Liver: 0.025 SUV
  Biodistribution of radioactivity, Lung: 0.008 SUV
  Biodistribution of radioactivity, Muscle: 0.136 SUV
  Biodistribution of radioactivity, Pancreas: 0.006 SUV
  Biodistribution of radioactivity, Spleen: 0.020 SUV
  Biodistribution of radioactivity, Testes: 0.004 SUV
  Biodistribution of radioactivity, Thymus: 0.006 SUV
[1]; 8 days p.i., calculated from femur activity concentration and total skeleton weight
  Total skeletal retention: constant over 8 days
[1]; after 60 min, calculated from femur activity concentration and total skeleton weight
  Total skeleton retention: 46.7 ± 5.3 %ID
[2]; arterial blood, single intravenous injection
  Blood half-life of the slow component (t1/2(β)): 23.3 min
[2]; within a period of 120 min
  Metabolization in blood samples (radio-HPLC and TLC): no evidence of any metabolization
